The assay addresses T1, BCL6 (Homo sapiens, UniProt P41182).
T1 construct: endogenous in cells; host or cells: T47D breast cancer epithelial cells
The experiment in a line: Immunofluorescence protocol for high content imaging of BCL6 (degradation) in T47D cells, 3 days compound treatment. Type of assay: cell-based. To be noted: T47D cells, 3 days compound treatment; for DC50: read-out: Mean DC50 (nM)* category; for Dmax: read-out: Mean Dmax (%)** category. The procedure, abridged:
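High content immunofluorescence imaging (10×, 4 fields/well) of BCL6 using rabbit primary antibody, Alexa-488 secondary, cell mask and Hoechst nuclear stain after PFA fixation. Before staining, T47D cells (7K/well) were exposed for 3 days at 37° C to 3-fold serial dilutions of compound, top final concentration 0.1 or 1 μM.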

We go through 16 molecules from patent US11986532B2 (Arvinas Operations, Inc., priority 2021, dated 2024).

Consider `CNC(=O)COc1cc2cc(Nc3nc(N4CCC(F)(CN5CCC6(CC5)CN(c5cccc7c5C(=O)N(C5CCC(=O)NC5=O)C7=O)C6)CC4)ncc3Cl)ccc2n(C(C)C)c1=O` (centres unmarked) [Compound 44, 2-{[6-({5-chloro-2-[4-({2-[2-(2,6-dioxopiperidin-3-yl)-1,3-dioxo-2,3-dihydro-1H-isoindol-4-yl]-2,7-diazaspiro [3.5]nonan-7-yl}methyl)-4-fluoropiperidin-1-yl]pyrimidin-4-yl}amino)-2-oxo-1-(propan-2-yl)-1,2-dihydroquinolin-3-yl]oxy}-N-methylacetamide], for which the half-maximal degradation concentration (DC50) (usually the midpoint of the concentration-degradation curve) is < 10 nM and the maximal degradation (Dmax) (usually the largest share of the target that was removed) is ≥ 70%.

With `CNC(=O)COc1cc2cc(Nc3nc(N4CCC(C(C)(C)N5CCC6(CC5)CN(c5ccc7c(c5)C(=O)N(C5CCC(=O)NC5=O)C7=O)C6)CC4)ncc3Cl)ccc2n(C(C)C)c1=O` (centres unmarked) [Compound 45], the 50% degradation concentration (DC50) is < 10 nM and the greatest degradation seen (Dmax) fell in the range of 50 to 70%.

`CNC(=O)COc1cc2cc(Nc3nc(N4CCC(C(C)(C)N5CCC6(CC5)CN(c5cccc7c5C(=O)N(C5CCC(=O)NC5=O)C7=O)C6)CC4)ncc3Cl)ccc2n(C(C)C)c1=O` (centres unmarked) [Compound 46, 2-{[6-({5-chloro-2-[4-(2-{2-[2-(2,6-dioxopiperidin-3-yl)-1,3-dioxo-2,3-dihydro-1H-isoindol-4-yl]-2,7-diazaspiro [3.5]nonan-7-yl}propan-2-yl)piperidin-1-yl]pyrimidin-4-yl}amino)-2-oxo-1-(propan-2-yl)-1,2-dihydroquinolin-3-yl]oxy}-N-methylacetamide]: the DC50 is < 10 nM and the Dmax is ≥ 70%.

In the case of `CNC(=O)COc1cc2cc(Nc3nc(N4CCC(C(=O)N5CCC6(CCN(c7ccc8c(c7)CN(C7CCC(=O)NC7=O)C8=O)C6)C5)CC4)ncc3Cl)ccc2n(C(C)C)c1=O` (centres unmarked) [Compound 47, 2-[(6-{[5-chloro-2-(4-{7-[2-(2,6-dioxopiperidin-3-yl)-1-oxo-2,3-dihydro-1H-isoindol-5-yl]-2,7-diazaspiro[4.4]nonane-2-carbonyl}piperidin-1-yl)pyrimidin-4-yl]amino}-2-oxo-1-(propan-2-yl)-1,2-dihydroquinolin-3-yl)oxy]-N-methylacetamide], the 50% degradation concentration (DC50) is < 10 nM and the Dmax was 50 to 70%.

In the case of `CNC(=O)COc1cc2cc(Nc3nc(N4CCC(CN5CCC6(CCN(c7ccc8c(c7)CN(C7CCC(=O)NC7=O)C8=O)C6=O)C5)CC4)ncc3Cl)ccc2n(C(C)C)c1=O` (centres unmarked) [Compound 48, 2-{[6-({5-chloro-2-[4-({7-[2-(2,6-dioxopiperidin-3-yl)-1-oxo-2,3-dihydro-1H-isoindol-5-yl]-6-oxo-2,7-diazaspiro[4.4]nonan-2-yl}methyl)piperidin-1-yl]pyrimidin-4-yl}amino)-2-oxo-1-(propan-2-yl)-1,2-dihydroquinolin-3-yl]oxy}-N-methylacetamide], the half-maximal degradation concentration (DC50) was < 10 nM and the Dmax was 50 to 70%.

As to `CNC(=O)COc1cc2cc(Nc3nc(N4CCC(OC5CCC6(CC5)CN(c5ccc7c(c5)CN(C5CCC(=O)NC5=O)C7=O)C6)CC4)ncc3Cl)ccc2n(C(C)C)c1=O` (centres unmarked) [Compound 49, 2-{[6-({5-chloro-2-[4-({2-[2-(2,6-dioxopiperidin-3-yl)-1-oxo-2,3-dihydro-1H-isoindol-5-yl]-2-azaspiro[3.5]nonan-7-yl}oxy)piperidin-1-yl]pyrimidin-4-yl}amino)-2-oxo-1-(propan-2-yl)-1,2-dihydroquinolin-3-yl]oxy}-N-methylacetamide], the DC50 is < 10 nM and the Dmax was 50 to 70%.

In the case of `CNC(=O)COc1cc2cc(Nc3nc(N4CCC(CN5CCC6(CC5)CN(c5ccc7c(c5)C(=O)N(C5CCC(=O)NC5=O)C7=O)C6)CC4)ncc3Cl)ccc2n(C2CC2)c1=O` (centres unmarked) [Compound 50, 2-{[6-({5-chloro-2-[4-({2-[2-(2,6-dioxopiperidin-3-yl)-1,3-dioxo-2,3-dihydro-1H-isoindol-5-yl]-2,7-diazaspiro[3.5]nonan-7-yl}methyl)piperidin-1-yl]pyrimidin-4-yl}amino)-1-cyclopropyl-2-oxo-1,2-dihydroquinolin-3-yl]oxy}-N-methylacetamide], the DC50 is < 10 nM and the greatest degradation seen (Dmax) was in the range of 50 to 70%.

As for `CNC(=O)COc1cc2cc(Nc3nc(N4CCC(F)(CN5CCC6(CC5)CN(c5ccc7c(c5)CN(C5CCC(=O)NC5=O)C7=O)C6)CC4)ncc3Cl)ccc2n(C(C)C)c1=O` (centres unmarked) [Compound 51, 2-{[6-({5-chloro-2-[4-({2-[2-(2,6-dioxopiperidin-3-yl)-1-oxo-2,3-dihydro-1H-isoindol-5-yl]-2,7-diazaspiro[3.5]nonan-7-yl}methyl)-4-fluoropiperidin-1-yl]pyrimidin-4-yl}amino)-2-oxo-1-(propan-2-yl)-1,2-dihydroquinolin-3-yl]oxy}-N-methylacetamide], the half-maximal degradation concentration (DC50) is < 10 nM and the maximal degradation (Dmax) lay in the range of 50 to 70%.

On to `CNC(=O)COc1cc2cc(Nc3nc(N4CCC(F)(CN5CCC6(CC5)CN(c5cccc7c5CN(C5CCC(=O)NC5=O)C7=O)C6)CC4)ncc3Cl)ccc2n(C(C)C)c1=O` (centres unmarked) [Compound 52, 2-{[6-({5-chloro-2-[4-({2-[2-(2,6-dioxopiperidin-3-yl)-1-oxo-2,3-dihydro-1H-isoindol-4-yl]-2,7-diazaspiro[3.5]nonan-7-yl}methyl)-4-fluoropiperidin-1-yl]pyrimidin-4-yl}amino)-2-oxo-1-(propan-2-yl)-1,2-dihydroquinolin-3-yl]oxy}-N-methylacetamide], for which the 50% degradation concentration (DC50) is < 10 nM and the greatest degradation seen (Dmax) is ≥ 70%.

Regarding `CNC(=O)COc1cc2cc(Nc3nc(N4CCC(C(C)(C)N5CCC6(CCN(c7ccc8c(c7)CN(C7CCC(=O)NC7=O)C8=O)C6)C5)CC4)ncc3Cl)ccc2n(C(C)C)c1=O` (centres unmarked) [Compound 53], the half-maximal degradation concentration (DC50) is < 10 nM and the greatest degradation seen (Dmax) lay in the range of 50 to 70%.

For `CNC(=O)COc1cc2cc(Nc3nc(N4CCC(CN5CC6(CCN(c7ccc8c(c7)CN(C7CCC(=O)NC7=O)C8=O)C6)CC5=O)CC4)ncc3Cl)ccc2n(C(C)C)c1=O` (centres unmarked) [Compound 54, 2-{[6-({5-chloro-2-[4-({7-[2-(2,6-dioxopiperidin-3-yl)-1-oxo-2,3-dihydro-1H-isoindol-5-yl]-3-oxo-2,7-diazaspiro[4.4]nonan-2-yl}methyl)piperidin-1-yl]pyrimidin-4-yl}amino)-2-oxo-1-(propan-2-yl)-1,2-dihydroquinolin-3-yl]oxy}-N-methylacetamide], the 50% degradation concentration (DC50) was < 10 nM and the Dmax was < 50%.

`CC(C)n1c(=O)c(OCC(=O)N(C)C)cc2cc(Nc3nc(N4CCC(CN5CCC6(CC5)CN(c5ccc7c(c5)C(=O)N(C5CCC(=O)NC5=O)C7=O)C6)CC4)ncc3Cl)ccc21` (centres unmarked) [Compound 55, 2-{[6-({5-chloro-2-[4-({2-[2-(2,6-dioxopiperidin-3-yl)-1,3-dioxo-2,3-dihydro-1H-isoindol-5-yl]-2,7-diazaspiro[3.5]nonan-7-yl}methyl)piperidin-1-yl]pyrimidin-4-yl}amino)-2-oxo-1-(propan-2-yl)-1,2-dihydroquinolin-3-yl]oxy}-N,N-dimethylacetamide]: the 50% degradation concentration (DC50) was ≥ 100 nM and the Dmax is ≥ 70%.

As to `CCNC(=O)COc1cc2cc(Nc3nc(N4CCC(CN5CCC6(CC5)CN(c5ccc7c(c5)C(=O)N(C5CCC(=O)NC5=O)C7=O)C6)CC4)ncc3Cl)ccc2n(C(C)C)c1=O` (centres unmarked) [Compound 56, 2-{[6-({5-chloro-2-[4-({2-[2-(2,6-dioxopiperidin-3-yl)-1,3-dioxo-2,3-dihydro-1H-isoindol-5-yl]-2,7-diazaspiro[3.5]nonan-7-yl}methyl)piperidin-1-yl]pyrimidin-4-yl}amino)-2-oxo-1-(propan-2-yl)-1,2-dihydroquinolin-3-yl]oxy}-N-ethylacetamide], the half-maximal degradation concentration (DC50) was ≥ 100 nM and the Dmax is ≥ 70%.

For `CNC(=O)COc1cc2cc(Nc3nc(N4CCC(CN5CCC6(CC5)CN(c5ccc7c(c5)C(=O)N(C5CCC(=O)NC5=O)C7=O)C6)CC4)ncc3F)ccc2n(C(C)C)c1=O` (centres unmarked) [Compound 57, 2-{[6-({2-[4-({2-[2-(2,6-dioxopiperidin-3-yl)-1,3-dioxo-2,3-dihydro-1H-isoindol-5-yl]-2,7-diazaspiro[3.5]nonan-7-yl}methyl)piperidin-1-yl]-5-fluoropyrimidin-4-yl}amino)-2-oxo-1-(propan-2-yl)-1,2-dihydroquinolin-3-yl]oxy}-N-methylacetamide], the 50% degradation concentration (DC50) lay within 10 to 50 nM and the Dmax was 50 to 70%.

`CNC(=O)COc1cc2cc(Nc3nc(N4CCC(C(C)(C)N5CCC6(CC5)CN(c5ccc7c(c5)CN(C5CCC(=O)NC5=O)C7=O)C6)CC4)ncc3Cl)ccc2n(C(C)C)c1=O` (centres unmarked) [Compound 58, 2-{[6-({5-chloro-2-[4-(2-{2-[2-(2,6-dioxopiperidin-3-yl)-1-oxo-2,3-dihydro-1H-isoindol-5-yl]-2,7-diazaspiro[3.5]nonan-7-yl}propan-2-yl)piperidin-1-yl]pyrimidin-4-yl}amino)-2-oxo-1-(propan-2-yl)-1,2-dihydroquinolin-3-yl]oxy}-N-methylacetamide]: the half-maximal degradation concentration (DC50) is < 10 nM and the Dmax is ≥ 70%.

For `CNC(=O)COc1cc2cc(Nc3nc(N4CCC(C(C)(C)N5CCC6(CC5)CN(c5cccc7c5CN(C5CCC(=O)NC5=O)C7=O)C6)CC4)ncc3Cl)ccc2n(C(C)C)c1=O` (centres unmarked) [Compound 59, 2-{[6-({5-chloro-2-[4-(2-{2-[2-(2,6-dioxopiperidin-3-yl)-1-oxo-2,3-dihydro-1H-isoindol-4-yl]-2,7-diazaspiro[3.5]nonan-7-yl}propan-2-yl)piperidin-1-yl]pyrimidin-4-yl}amino)-2-oxo-1-(propan-2-yl)-1,2-dihydroquinolin-3-yl]oxy}-N-methylacetamide], the DC50 is < 10 nM and the greatest degradation seen (Dmax) was in the range of 50 to 70%.
